Experimental data published in patent US20240262812A1, “N-SUBSTITUTED PHENYLSULFONAMIDE COMPOUND AND USE THEREOF” (Shanghai Leado Pharmatech Co., Ltd., priority 2021, published 2024).

What follows are compounds tested against T1, mTRPA1 (Mus musculus, UniProt Q8BLA8) (assay: IonWorks Barracuda (IWB) automated patch clamp, TRPA1 inhibitory activity). Details: HEK293 cells stably expressing mTRPA1, current induced by AITC, amplitude at +100 mV; read-out: IC50 (inhibition activity on TRPA1).
T1 construct: expressed in transfected cells
T1 sequence (Q8BLA8 whole entry): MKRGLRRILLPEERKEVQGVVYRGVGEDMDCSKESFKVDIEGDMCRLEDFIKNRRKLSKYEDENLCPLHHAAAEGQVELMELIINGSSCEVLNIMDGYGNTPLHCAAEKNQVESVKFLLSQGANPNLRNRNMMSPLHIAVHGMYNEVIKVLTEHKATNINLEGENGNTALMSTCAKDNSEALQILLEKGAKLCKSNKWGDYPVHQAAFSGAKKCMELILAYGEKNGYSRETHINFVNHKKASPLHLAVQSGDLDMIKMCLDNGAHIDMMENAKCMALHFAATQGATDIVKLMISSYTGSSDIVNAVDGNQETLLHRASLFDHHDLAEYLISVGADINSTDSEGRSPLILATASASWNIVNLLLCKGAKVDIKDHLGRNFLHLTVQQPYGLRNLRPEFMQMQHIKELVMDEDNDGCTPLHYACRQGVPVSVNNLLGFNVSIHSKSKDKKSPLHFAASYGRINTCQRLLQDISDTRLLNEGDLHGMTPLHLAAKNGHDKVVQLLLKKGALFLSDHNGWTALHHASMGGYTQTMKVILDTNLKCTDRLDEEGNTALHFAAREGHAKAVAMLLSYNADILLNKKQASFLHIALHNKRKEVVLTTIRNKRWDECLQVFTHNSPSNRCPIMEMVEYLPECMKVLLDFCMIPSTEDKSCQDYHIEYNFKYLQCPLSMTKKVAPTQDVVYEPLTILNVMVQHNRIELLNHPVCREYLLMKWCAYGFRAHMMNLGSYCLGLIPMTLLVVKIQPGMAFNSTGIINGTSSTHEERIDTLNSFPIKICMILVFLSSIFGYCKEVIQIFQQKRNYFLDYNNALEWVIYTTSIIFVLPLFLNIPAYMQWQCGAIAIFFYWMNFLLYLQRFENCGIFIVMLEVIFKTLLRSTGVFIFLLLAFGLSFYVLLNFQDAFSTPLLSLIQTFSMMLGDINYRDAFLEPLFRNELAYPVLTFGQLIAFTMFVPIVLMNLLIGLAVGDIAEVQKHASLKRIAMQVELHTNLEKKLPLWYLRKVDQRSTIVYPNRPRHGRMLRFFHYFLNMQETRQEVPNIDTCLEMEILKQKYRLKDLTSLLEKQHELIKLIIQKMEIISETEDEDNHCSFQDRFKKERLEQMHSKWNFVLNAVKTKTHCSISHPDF
Type: cell-based
Procedure: In this example, the inhibitory activity of the compounds prepared in some examples of the present invention on transient receptor potential channel protein ankyrin 1 (TRPA1) was tested. Among them, compound of formula A (WO2010075353) was used as the positive control compound: […]
Test method using IonWorks Barracuda (IWB) automated patch clamp detection: HEK293 cells stably expressing mTRPA1 were placed in the T175 culture flask with DMEM medium containing 15 µg/mL Blasticidin S HCl, 200 µg/mL Hygromycin B and 10% FBS, and cultured in 37° C., 5% CO2 incubator. When the cell density reached about 80%, the culture medium was removed, washed once with phosphate buffered saline (PBS) without calcium and magnesium. 3 mL of Trypsin was added to digest for 2 min, 7 mL of culture solution was added to terminate the digestion. The cells were collected to 15 mL centrifuge tube and centrifuged at 800 rpm for 3 min. After the supernatant was removed, the cells were added to appropriate volume of extracellular fluid for re-suspending, and the cell density was controlled at 2-3×10^6/mL for use in IWB experiment. Extracellular fluid formulation (in mM): 140 NaCl, 5 KCl, 1 MgCl2, 10 HEPES, 0.5 EGTA, 10 Glucose (pH 7.4); intracellular fluid formulation (in mM): 140 CsCl, 10 HEPES, 5 EGTA, 0.1 CaCl2, 1 MgCl2 (pH 7.2). 28 mg/mL of amphotericin B was freshly prepared with DMSO on the day of experiment, and then final concentration of 0.1 mg/mL was prepared with intracellular fluid.
Population patch clamp (PPC) plate was used in IWB experiment. The entire detection process was automatically carried out by the instrument, that is, extracellular fluid was added into 384 wells of PPC plate, and after intracellular fluid was added under PPC plate (in plenum), 6 µL of cell fluid was added for sealing test, and finally the intracellular fluid in plenum was replaced with intracellular fluid containing amphotericin B to establish a whole-cell recording mode after perforating sealed cells. The sampling frequency for recording TPRA1 current was 10 kHz, the cells were clamped at 0 mV, the voltage stimulation command (channel protocol) was a ramp voltage from −100 mV to +100 mV for 300 ms. This voltage stimulation was applied every 10 s, mTRPA1 current was induced by 300 µM AITC.
Data recording and current amplitude measurement export were carried out by IWB software (version 2.5.3, Molecular Devices Corporation, Union City, CA). No statistics was recorded for holes with sealing impedance lower than 20 MΩ. The original current data was corrected by software for leak subtraction. TRPA1 current amplitude was measured at +100 mV. […] If IC50 value of HC030031 exceeded 3 times of the average IC50 value previously obtained on each plate, it would be re-tested. The dose-effect curve of compounds and IC50 were fitted and calculated by GraphPad Prism 5.02 (GraphPad Software, San Diego, CA).
Some compounds of the present invention were subjected to IC50 inhibition activity test using the IonWorks Barracuda (IWB) automated patch clamp detection method.
In the case of `C[C@H]1CCCN1c1ccc(-c2csc(NC(=O)Cn3cnc4c3c(=O)n(C)c(=O)n4C)n2)cc1F` [Compound of formula A, reference compound], the IC50 is reported as 50 to 100 µM.
With `CNCc1ccc(-c2ccco2)c(NS(=O)(=O)c2ccccc2F)c1` [IA-2, 2-Fluoro-N-(2-(furan-2-yl)-5-((methylamino)methyl)phenyl)benzenesulfonamide] the IC50 was 1 to 5 µM.
`CNCc1ccc(-c2ccco2)c(NS(=O)(=O)c2cccc(F)c2)c1` [IA-3, 3-Fluoro-N-(2-(furan-2-yl)-5-((methylamino)methyl)phenyl)benzenesulfonamide] showed an IC50 of 1 to 5 µM.
`CNCc1ccc(-c2ccco2)c(NS(=O)(=O)c2ccccc2)c1` [IA-4, N-(2-(furan-2-yl)-5-((methylamino)methyl)phenyl)benzenesulfonamide] was tested, and the IC50 was 1 to 5 µM.
`CNCc1ccc(-c2ccco2)c(NS(=O)(=O)c2ccc(OC)cc2)c1` [IA-6, 4-Methoxy-N-(2-(furan-2-yl)-5-((methylamino)methyl)phenyl)benzenesulfonamide] showed an IC50 of 5 to 10 µM.
For `CNCc1ccc(-c2ccco2)c(NS(=O)(=O)c2ccc(Cl)cc2)c1` [IA-7], the IC50 was 5 to 10 µM.
`CNCc1ccc(-c2ccco2)c(NS(=O)(=O)c2ccccc2OC(F)(F)F)c1` [IA-8, 2-Trifluoromethoxy-N-(2-(furan-2-yl)-5-((methylamino)methyl)phenyl)benzenesulfonamide] was tested, and the IC50 was 10 to 20 µM.
With `CNCc1ccc(-c2ccco2)c(NS(=O)(=O)c2ccc(OC(F)(F)F)cc2)c1` [IA-9, 4-Trifluoromethoxy-N-(2-(furan-2-yl)-5-((methylamino)methyl)phenyl)benzenesulfonamide] the IC50 was 20 to 50 µM.
`CNCc1ccc(-c2ccco2)c(NS(=O)(=O)c2ccc(C)cc2)c1` [IA-10, 4-Methyl-N-(2-(furan-2-yl)-5-((methylamino)methyl)phenyl)benzenesulfonamide] gave an IC50 of 1 to 5 µM.
For `CNCc1ccc(-c2ccco2)c(NS(=O)(=O)c2c(F)cccc2F)c1` [IA-12, 2,6-Difluoro-N-(2-(furan-2-yl)-5-((methylamino)methyl)phenyl)benzenesulfonamide], the IC50 was 5 to 10 µM.
In the case of `CNCc1ccc(-c2ccco2)c(NS(=O)(=O)c2ccc(C(F)(F)F)cc2)c1` [IA-13, 4-Trifluoromethyl-N-(2-(furan-2-yl)-5-((methylamino)methyl)phenyl)benzenesulfonamide], the IC50 is reported as 10 to 20 µM.
For `CNCc1ccc(-c2ccco2)c(NS(=O)(=O)c2ccc3ccccc3c2)c1` [IA-14, N-(2-(furan-2-yl)-5-((methylamino)methyl)phenyl)naphthalene-2-sulfonamide], the IC50 was 50 to 100 µM.
`CNCc1ccc(-c2ccco2)c(NS(=O)(=O)c2ccc3ncsc3c2)c1` [IA-16, N-(2-(furan-2-yl)-5-((methylamino)methyl)phenyl)benzothiazole-6-sulfonamide] showed an IC50 of 5 to 10 µM.
`CNCc1ccc(-c2ccco2)c(NS(=O)(=O)c2cccnc2)c1` [IA-17, N-(2-(furan-2-yl)-5-((methylamino)methyl)phenyl)pyridine-3-sulfonamide] showed an IC50 of 5 to 10 µM.
`CNCc1ccc(-c2ccco2)c(NS(=O)(=O)c2ccc(Cl)nc2)c1` [IA-18, 6-Chloro-N-(2-(furan-2-yl)-5-((methylamino)methyl)phenyl)pyridine-3-sulfonamide] gave an IC50 of 10 to 20 µM.
`CNCc1ccc(-c2ccco2)c(NS(=O)(=O)c2cccs2)c1` [IA-20, N-(2-(furan-2-yl)-5-((methylamino)methyl)phenyl)thiophene-2-sulfonamide] gave an IC50 of 1 to 5 µM.
Compound `CNCc1ccc(-c2ccco2)c(NS(=O)(=O)c2ccc(Cl)s2)c1` [IA-22, 5-Chloro-N-(2-(furan-2-yl)-5-((methylamino)methyl)phenyl)thiophene-2-sulfonamide] has an IC50 of 20 to 50 µM.
Compound `CNCc1ccc(-c2ccco2)c(NS(=O)(=O)c2ccc(Br)s2)c1` [IA-23, 5-Bromo-N-(2-(furan-2-yl)-5-((methylamino)methyl)phenyl)thiophene-2-sulfonamide] has an IC50 of 10 to 20 µM.
With `CNCc1ccc(-c2ccco2)c(NS(=O)(=O)Cc2ccccc2)c1` [IA-24, N-(2-(furan-2-yl)-5-((methylamino)methyl)phenyl)-1-phenylmethanesulfonamide] the IC50 was 20 to 50 µM.
With `O=S(=O)(Nc1cc(CNCC(F)(F)F)ccc1-c1ccco1)c1ccccc1` [IA-25] the IC50 was 20 to 50 µM.
For `CNCc1ccc(NS(=O)(=O)c2ccccc2)c(-c2ccco2)c1` [IA-26, N-(2-(furan-2-yl)-4-((methylaamino)methyl)phenyl)benzenesulfonamide], the IC50 was 1 to 5 µM.
With `CNCc1ccc(NS(=O)(=O)c2ccc(F)cc2)c(-c2ccco2)c1` [IA-27, 4-Fluoro-N-(2-(furan-2-yl)-4-((methylamino)methyl)phenyl)benzenesulfonamide] the IC50 was 1 to 5 µM.
In the case of `CNCc1ccc(NS(=O)(=O)c2ccccc2F)c(-c2ccco2)c1` [IA-28, 2-Fluoro-N-(2-(furan-2-yl)-4-((methylamino)methyl)phenyl)benzenesulfonamide], the IC50 is reported as 1 to 5 µM.
With `CNCc1ccc(NS(=O)(=O)c2cccs2)c(-c2ccco2)c1` [IA-29, N-(2-(furan-2-yl)-4-((methylamino)methyl)phenyl)thiophene-2-sulfonamide] the IC50 was < 1 µM.
Work on `CNCc1ccc(NS(=O)(=O)c2cccnc2)c(-c2ccco2)c1` [IA-31, N-(2-(furan-2-yl)-4-((methylamino)methyl)phenyl)pyridine-3-sulfonamide] yielded an IC50 of 5 to 10 µM.
For `CCNCc1ccc(NS(=O)(=O)c2ccsc2)c(-c2ccco2)c1` [IA-32, N-(4-((ethylamino)methyl)-2-(furan-2-yl)phenyl)thiophene-3-sulfonamide], the IC50 was < 1 µM.
`O=S(=O)(Nc1ccc(CNC2CCC2)cc1-c1ccco1)c1ccsc1` [IA-34, N-(4-((cyclobutylamino)methyl)-2-(furan-2-yl)phenyl)thiophene-3-sulfonamide] gave an IC50 of 1 to 5 µM.
`CNCc1ccc(NS(=O)(=O)c2ccccc2)cc1-c1ccco1` [IA-36, N-(3-(furan-2-yl)-4-((methylamino)methyl)phenyl)benzenesulfonamide] showed an IC50 of 20 to 50 µM.
`CNCc1cc(NS(=O)(=O)c2ccccc2)cc(-c2ccco2)c1` [IA-39, N-(3-(furan-2-yl)-5-((methylamino)methyl)phenyl)benzenesulfonamide] gave an IC50 of 20 to 50 µM.
`CNCc1ccc(-c2ccco2)cc1NS(=O)(=O)c1ccccc1` [IA-40, N-(5-(furan-2-yl)-2-((methylamino)methyl)phenyl)benzenesulfonamide] gave an IC50 of 50 to 100 µM.
`CNCc1ccc(-c2ccoc2)c(NS(=O)(=O)c2ccc(F)cc2)c1` [IA-41, 4-Fluoro-N-(2-(furan-3-yl)-5-((methylamino)methyl)phenyl)benzenesulfonamide] showed an IC50 of 5 to 10 µM.
Work on `CNCc1ccc(-c2ccoc2)c(NS(=O)(=O)c2ccccc2)c1` [IA-42, N-(2-(furan-3-yl)-5-((methylamino)methyl)phenyl)benzenesulfonamide] yielded an IC50 of 1 to 5 µM.
`CNCc1ccc(-c2cccs2)c(NS(=O)(=O)c2ccccc2)c1` [IA-46, N-(2-(thiophene-2-yl)-5-((methylamino)methyl)phenyl)benzenesulfonamide] was tested, and the IC50 was 1 to 5 µM.
`CNCc1ccc(-c2cccs2)c(NS(=O)(=O)c2cccs2)c1` [IA-47, N-(2-(thiophene-2-yl)-5-((methylamino)methyl)phenyl)thiophene-2-sulfonamide] showed an IC50 of 1 to 5 µM.
`CNCc1ccc(-c2cccs2)c(NS(=O)(=O)c2ccsc2)c1` [IA-48, N-(2-(thiophene-2-yl)-5-((methylamino)methyl)phenyl)thiophene-3-sulfonamide] gave an IC50 of 1 to 5 µM.
`CNCc1ccc(-c2ccc[nH]2)c(NS(=O)(=O)c2ccccc2)c1` [IA-50, N-(5-((methylamino)methyl)-2-(1H-pyrrole-2-yl)phenyl)benzenesulfonamide] showed an IC50 of 20 to 50 µM.
`CNCc1ccc(-c2cn[nH]c2)c(NS(=O)(=O)c2ccccc2)c1` [IA-52] gave an IC50 of 20 to 50 µM.
`CNCc1ccc(-c2c(C)noc2C)c(NS(=O)(=O)c2ccccc2)c1` [IA-53, N-(2-(3,5-dimethylisoxazol-4-yl)-5-((methylamino)methyl)phenyl)benzenesulfonamide] showed an IC50 of 5 to 10 µM.
Work on `CNCc1ccc(-c2cc[nH]n2)c(NS(=O)(=O)c2ccccc2)c1` [IA-54, N-(5-((methylamino)methyl)-2-(1H-pyrazol-5-yl)phenyl)benzenesulfonamide] yielded an IC50 of 1 to 5 µM.
